Source: US8163771B2, “11 β-HSD1 modulators” (Exelixis, Inc., priority 2008, dated 2012)

Target: T1, recombinant human 11 β-HSD1 (Homo sapiens, UniProt P28845)
T1 construct: made in house; host or cells: E. coli
Assay: 11 β-HSD1 SPA Assay (Scintillation Proximity Assay)
Format: biochemical
Procedure, shortened: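 E. coli-expressed human enzyme (30-100 nM) with tritiated cortisone 40 nM and NADPH 1 mM in HEPES buffer pH7.4, 2 hours at room temperature. Stopped with protein A SPA beads carrying anti-cortisol antibody and glycyrrhetinic acid; counted after overnight incubation. IC50 from percent inhibition between no-enzyme and no-compound signals.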

T1 sequence (P28845 whole entry): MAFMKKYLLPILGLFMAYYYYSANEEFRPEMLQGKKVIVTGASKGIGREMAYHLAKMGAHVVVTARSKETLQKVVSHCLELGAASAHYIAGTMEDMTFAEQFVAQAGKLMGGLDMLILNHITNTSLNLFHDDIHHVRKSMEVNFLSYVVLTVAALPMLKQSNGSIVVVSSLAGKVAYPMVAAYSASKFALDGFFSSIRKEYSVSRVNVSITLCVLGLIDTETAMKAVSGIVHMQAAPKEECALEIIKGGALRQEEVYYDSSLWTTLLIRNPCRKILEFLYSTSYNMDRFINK

Row | SMILES | IC50 [nM]
1 | CC(C)(Oc1ccc(F)c(F)c1)C(=O)N[C@H]1C[C@H]2CC[C@@H](C1)N2c1ccc(C(=O)NCC(F)(F)F)cc1 [Example 210, 4-[3-endo-({2-[(3,4-difluorophenyl)oxy]-2-methylpropanoyl}amino)-8-azabicyclo[3.2.1]oct-8-yl]-N-(2,2,2-trifluoroethyl)benzamide] | < 200
2 | CC(C)(Oc1ccc(Cl)cc1S(C)(=O)=O)C(=O)N[C@H]1C[C@H]2CC[C@@H](C1)N2c1ccc(S(C)(=O)=O)cn1 [Example 324, 2-{[4-chloro-2-(methylsulfonyl)phenyl]oxy}-2-methyl-N-{8-[5-(methylsulfonyl)pyridin-2-yl]-8-azabicyclo[3.2.1]oct-3-endo-yl}propanamide] | < 2000
3 | CC(C)(Oc1cc(OC(C)(C)C(=O)N[C@H]2C[C@H]3CC[C@@H](C2)N3c2ccc(C(=O)NCC(F)(F)F)cn2)c(Cl)cc1Cl)C(=O)O [Example 414, 2-(2,4-dichloro-5-(2-methyl-1-oxo-1-(8-(5-(2,2,2-trifluoroethylcarbamoyl)pyridin-2-yl)-8-azabicyclo[3.2.1]octan-3-endo-ylamino)propan-2-yloxy)phenoxy)-2-methylpropanoic acid] | < 2000
4 | CC(C)(Oc1ccc(Cl)c(F)c1)C(=O)N[C@H]1C[C@H]2CC[C@@H](C1)N2c1ccc(C(=O)NCC(F)(F)F)cn1 [Example 77, 6-[3-endo-({2-[(4-chloro-3-fluorophenyl)oxy]-2-methylpropanoyl}amino)-8-azabicyclo[3.2.1]oct-8-yl]-N-(2,2,2-trifluoroethyl)pyridine-3-carboxamide] | < 200
5 | CC(C)(Oc1ccc(Cl)cn1)C(=O)N[C@H]1C[C@H]2CC[C@@H](C1)N2c1ccc(C(=O)NCC(F)(F)F)cn1 [Example 108, 6-[3-endo-({2-[(5-chloropyridin-2-yl)oxy]-2-methylpropanoyl}amino)-8-azabicycio[3.2.1]oct-8-yl]-N-(2,2,2-trifluoroethyl)pyridine-3-carboxamide] | < 200
6 | COCCNC(=O)c1ccc(N2[C@@H]3CC[C@H]2C[C@@H](NC(=O)C(C)(C)Oc2ccc(Cl)cc2Cl)C3)nc1 [Example 80, 6-[3-endo-({2-[(2,4-dichlorophenyl)oxy]-2-methylpropanoyl}amino)-8-azabicyclo[3.2.1]oct-8-yl]-N-[2-(methyloxy)ethyl]pyridine-3-carboxamide] | < 200
7 | CC(C)(Oc1ccc(Cl)cc1Cl)C(=O)N[C@H]1C[C@H]2CC[C@@H](C1)N2c1ccc(C(=O)NCCN2CCCC2)cn1 [Example 340, 6-(3-endo-{[2-(2,4-dichlorophenoxy)-2-methylpropanoyl]amino}-8-azabicyclo[3.2.1]oct-8-yl)-N-[2-(pyrrolidin-1-yl)ethyl]pyridine-3-carboxamide] | < 200
8 | CC(C)(Oc1ccc(Cl)c(Cl)c1)C(=O)N[C@H]1C[C@H]2CC[C@@H](C1)N2c1ccc(NS(C)(=O)=O)cc1 [Example 329, 2-[(3,4-dichlorophenyl)oxy]-2-methyl-N-(8-{4-[(methylsulfonyl)amino]phenyl}-8-azabicyclo[3.2.1]oct-3-endo-yl)propanamide] | < 200
9 | NC(=O)c1ccc(N2[C@@H]3CC[C@H]2C[C@@H](NC(=O)C2(c4ccc(F)c(F)c4)CC2)C3)nc1 [Example 141, 6-[3-endo-({[1-(3,4-difluorophenyl)cyclopropyl]carbonyl}amino)-8-azabicyclo[3.2.1]oct-8-yl]pyridine-3-carboxamide] | < 200
10 | COCCOc1cc(Cl)ccc1OC(C)(C)C(=O)N[C@H]1C[C@H]2CC[C@@H](C1)N2c1ccc(C(=O)NCC(F)(F)F)cn1 [Example 352, 6-[3-endo-({2-[4-chloro-2-(2-methoxyethoxy)phenoxy]-2-methylpropanoyl}amino)-8-azabicyclo[3.2.1]oct-8-yl]-N-(2,2,2-trifluoroethyl)pyridine-3-carboxamide] | < 200
11 | CC(C)(Oc1ccc(Cl)c(F)c1)C(=O)N[C@H]1C[C@H]2CC[C@@H](C1)N2c1ccc(S(N)(=O)=O)cn1 [Example 242, N-{8-[5-(aminosulfonyl)pyridin-2-yl]-8-azabicyclo[3.2.1]oct-3-endo-yl}-2-[(4-chloro-3-fluorophenyl)oxy]-2-methylpropanamide] | < 200
12 | C[C@@H](NC(=O)c1ccc(N2C3CCC2CC(NC(=O)C(C)(C)Oc2ccc(Cl)cc2Cl)C3)nc1)C(F)(F)F (stereo partly drawn) [Example 373, 6-(3-endo-{[2-(2,4-dichlorophenoxy)-2-methylpropanoyl]amino}-8-azabicyclo[3.2.1]oct-8-yl)-N-[(2R)-1,1,1-trifluoropropan-2-yl]pyridine-3-carboxamide] | < 200
13 | CC(C)(Oc1ccc(Cl)cc1C(F)(F)F)C(=O)N[C@H]1C[C@H]2CC[C@@H](C1)N2c1ccc(C(=O)NCC(F)F)cn1 [Example 343, 6-[3-endo-({2-[4-chloro-2-(trifluoromethyl)phenoxy]-2-methylpropanoyl}amino)-8-azabicyclo[3.2.1]oct-8-yl]-N-(2,2-difluoroethyl)pyridine-3-carboxamide] | < 200
14 | CC(C)(Oc1ccc(Cl)cc1Cl)C(=O)N[C@H]1C[C@H]2CC[C@@H](C1)N2c1ccc(S(N)(=O)=O)cn1 [Example 125, N-{8-[5-(aminosulfonyl)pyridin-2-yl]-8-azabicyclo[3.2.1]oct-3-endo-yl}-2-[(2,4-dichlorophenyl)oxy]-2-methylpropanamide] | < 200
15 | O=C(NC1CC1)c1ccc(N2[C@@H]3CC[C@H]2C[C@@H](NC(=O)C2(Oc4ccccc4)CC2)C3)nc1 [Example 45, N-cyclopropyl-6-[3-endo-({[1-(phenyloxy)cyclopropyl]carbonyl}amino)-8-azabicyclo[3.2.1]oct-8-yl]pyridine-3-carboxamide] | < 200
16 | COc1ccc(OC(C)(C)C(=O)N[C@H]2C[C@H]3CC[C@@H](C2)N3c2ccc(S(C)(=O)=O)cc2)cc1 [Example 182, 2-methyl-2-{[4-(methyloxy)phenyl]oxy}-N-{8-[4-(methylsulfonyl)phenyl]-8-azabicyclo[3.2.1]oct-3-endo-yl}propanamide] | < 2000
17 | COc1cc(F)ccc1OC(C)(C)C(=O)N[C@H]1C[C@H]2CC[C@@H](C1)N2c1ccc(S(N)(=O)=O)cn1 [Example 221, N-{8-[5-(aminosulfonyl)pyridin-2-yl]-8-azabicyclo[3.2.1]oct-3-endo-yl}-2-{[4-fluoro-2-(methyloxy)phenyl]oxy}-2-methylpropanamide] | < 200
18 | CC(C)(Oc1ncc(C(F)(F)F)cc1Cl)C(=O)N[C@H]1C[C@H]2CC[C@@H](C1)N2c1ccc(S(N)(=O)=O)cn1 [Example 246, N-{8-[5-(aminosulfonyl)pyridin-2-yl]-8-azabicyclo[3.2.1]oct-3-endo-yl}-2-{[3-chloro-5-(trifluoromethyl)pyridin-2-yl]oxy}-2-methylpropanamide] | < 2000
19 | CC(C)(Oc1ccc(Cl)cc1OC(F)(F)F)C(=O)NC1CC2CCC(C1)N2c1ccc(C(=O)NC2CC2(F)F)cn1 (stereo not drawn) [Example 394, 6-[3-endo-({2-[4-chloro-2-(trifluoromethoxy)phenoxy]-2-methylpropanoyl}amino)-8-azabicyclo[3.2.1]oct-8-yl]-N-(2,2-difluorocyclopropyl)pyridine-3-carboxamide] | < 200
20 | CC(C)(Oc1cc(F)c(Cl)cc1Cl)C(=O)N[C@H]1C[C@H]2CC[C@@H](C1)N2c1ccc(C(=O)NCC(F)F)cn1 [Example 436, 6-(3-endo-{[2-(2,4-dichloro-5-fluorophenoxy)-2-methylpropanoyl]amino}-8-azabicyclo[3.2.1]oct-8-yl)-N-(2,2-difluoroethyl)pyridine-3-carboxamide] | < 200
21 | O=C(NC1CC1)c1ccc(N2[C@@H]3CC[C@H]2C[C@@H](NC(=O)C2(c4cccc(Cl)c4)CC2)C3)nc1 [Example 16, 6-[3-endo-({[1-(3-chlorophenyl)cyclopropyl]carbonyl}amino)-8-azabicyclo[3.2.1]oct-8-yl]-N-cyclopropylpyridine-3-carboxamide] | < 200
22 | O=C(NCC(F)(F)F)c1ccc(N2[C@@H]3CC[C@H]2C[C@@H](NC(=O)C2(c4cccc(Cl)c4)CC2)C3)nc1 [Example 122, 6-[3-endo-({[1-(3-chlorophenyl)cyclopropyl]carbonyl}amino)-8-azabicyclo[3.2.1]oct-8-yl]-N-(2,2,2-trifluoroethyl)pyridine-3-carboxamide] | < 200
23 | CC(C)(Oc1ccc(Cl)cc1Cl)C(=O)N[C@H]1C[C@H]2CC[C@@H](C1)N2c1ccc(C(=O)NCc2ccncc2)cn1 [Example 342, 6-(3-endo-{[2-(2,4-dichlorophenoxy)-2-methylpropanoyl]amino}-8-azabicyclo[3.2.1]oct-8-yl)-N-(pyridin-4-ylmethyl)pyridine-3-carboxamide] | < 200
24 | CC(C)(Oc1ccc(Cl)cc1)C(=O)N[C@H]1C[C@H]2CC[C@@H](C1)N2c1ccc(C(=O)NC2CC2)cn1 [Example 13, 6-[3-endo-({2-[(4-chlorophenyl)oxy]-2-methylpropanoyl}amino)-8-azabicyclo[3.2.1]oct-8-yl]-N-cyclopropylpyridine-3-carboxamide] | < 200
25 | CC(C)(Oc1ccc(C(F)(F)F)cc1Cl)C(=O)N[C@H]1C[C@H]2CC[C@@H](C1)N2c1ccc(C(=O)NCC(F)(F)F)cn1 [Example 184, 6-{3-endo-[(2-{[2-chloro-4-(trifluoromethyl)phenyl]oxy}-2-methylpropanoyl)amino]-8-azabicyclo[3.2.1]oct-8-yl}-N-(2,2,2-trifluoroethyl)pyridine-3-carboxamide] | < 200
26 | C[C@@H](NC(=O)c1ccc(N2C3CCC2CC(NC(=O)C(C)(C)Oc2ccc(F)cc2Cl)C3)nc1)C(F)(F)F (stereo partly drawn) [Example 452, 6-(3-endo-{[2-(2-chloro-4-fluorophenoxy)-2-methylpropanoyl]amino}-8-azabicyclo[3.2.1]oct-8-yl)-N-[(2R)-1,1,1-trifluoropropan-2-yl]pyridine-3-carboxamide] | < 200
27 | CC(C)(Oc1ccc(Cl)c(F)c1)C(=O)N[C@H]1C[C@H]2CC[C@@H](C1)N2c1ccc(C(=O)NC2CC2)cn1 [Example 43, 6-[3-endo-({2-[(4-chloro-3-fluorophenyl)oxy]-2-methylpropanoyl}amino)-8-azabicyclo[3.2.1]oct-8-yl]-N-cyclopropylpyridine-3-carboxamide] | < 200
